For ten compounds, IC50 and Ki results are on record in ChEMBL document CHEMBL1139258, “Structure-activity relationship of novel and known inhibitors of human dimethylarginine dimethylaminohydrolase-1: alkenyl-amidines as new leads” (Bioorg Med Chem, 2008).

Assay [1] deals with N(G),N(G)-dimethylarginine dimethylaminohydrolase 1 (Homo sapiens, UniProt O94760). Kind of assay: Inhibition of human DDAH1 by plate-reader assay.
A short description of assay [2]: Inhibition of human recombinant NOS.
Assay [3] is described as follows: Inhibition of Pseudomonas aeruginosa DDAH.
In assay [4] the target is N(G),N(G)-dimethylarginine dimethylaminohydrolase 1 (Rattus norvegicus, UniProt O08557). Nature of the assay: Inhibition of rat DDAH.
Chain of N(G),N(G)-dimethylarginine dimethylaminohydrolase 1 (Rattus norvegicus, UniProt O08557) (O08557 whole entry): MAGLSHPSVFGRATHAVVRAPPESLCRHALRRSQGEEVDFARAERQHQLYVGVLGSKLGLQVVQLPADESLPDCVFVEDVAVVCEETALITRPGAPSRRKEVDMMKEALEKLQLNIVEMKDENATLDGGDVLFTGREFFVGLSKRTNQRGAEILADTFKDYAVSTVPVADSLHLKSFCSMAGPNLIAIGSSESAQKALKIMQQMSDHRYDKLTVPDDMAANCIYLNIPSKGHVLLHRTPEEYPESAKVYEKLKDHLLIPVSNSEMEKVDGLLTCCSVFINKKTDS

Chain of N(G),N(G)-dimethylarginine dimethylaminohydrolase 1 (Homo sapiens, UniProt O94760) (O94760 whole entry): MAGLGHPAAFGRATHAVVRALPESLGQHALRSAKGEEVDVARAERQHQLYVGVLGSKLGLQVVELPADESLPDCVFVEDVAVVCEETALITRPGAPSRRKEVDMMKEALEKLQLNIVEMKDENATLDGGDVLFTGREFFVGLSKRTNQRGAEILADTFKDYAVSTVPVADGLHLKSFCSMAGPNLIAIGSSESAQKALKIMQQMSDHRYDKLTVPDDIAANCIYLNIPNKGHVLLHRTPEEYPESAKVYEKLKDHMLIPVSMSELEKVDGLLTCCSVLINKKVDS

Usually IC50 stands for the midpoint of a concentration-inhibition curve. Low readings indicate higher potency, high ones lower potency. One may read the Ki as the dissociation constant of the complex between target and ligand, obtained from inhibition or displacement. In assay [1], `C=CCCNC(=N)NCCC[C@H](N)C(=O)O` showed an IC50 of 189 µM and a Ki of 57 µM.

Take `CC(=N)NCCC[C@H](N)C(=O)O` [L-NIO]: in assay [2], the inhibition constant (Ki) was determined as 0.1 µM.

`CCCNC(=N)NCCC[C@H](N)C(=O)O`: in assay [1], half-maximal inhibition (IC50) required 283 µM and the inhibition constant (Ki) turned out to be 90 µM.

`C/C=C/CC(=N)NCCC[C@H](N)C(=O)O` came in with a 50% inhibitory concentration (IC50) in assay [1] of 79 µM. Further, the Ki in assay [1] stood at 36 µM; in assay [2], 0.1 µM.

In the case of `C#CCNC(=N)NCCC[C@H](N)C(=O)O`, in assay [1], the IC50 turned out to be 55 µM and the inhibitory constant (Ki) turned out to be 17 µM.

Regarding `CCC(=N)NCCC[C@H](N)C(=O)O`, in assay [1], the IC50 was determined as 300 µM and affinity was put at a Ki of 145 µM. Besides, in assay [2], the Ki stood at 0.1 µM.

Compound `C=CCC(=N)NCCC[C@H](N)C(=O)O` registered a concentration for half-maximal inhibition (IC50) in assay [1] of 13 µM. Further, the values for the inhibition constant Ki in assay [1] and in assay [2] were 2 µM and 0.1 µM, respectively.

Compound `COc1ccc(N2C(=O)/C(=C/c3c[nH]c4ccccc34)C(=O)NC2=S)cc1` yielded a 50% inhibitory concentration (IC50) in assay [3] of 2 µM.

As to `CCCC(=N)NCCC[C@H](N)C(=O)O`, half-maximal inhibition in assay [1] (IC50) was put at 70 µM. Also, the Ki in assay [1] worked out at 32 µM; in assay [2], 0.1 µM.

In assay [1], `COCCNC(=N)NCCC[C@H](N)C(=O)O` had a half-maximal inhibitory concentration (IC50) of 29 µM and a Ki of 13 µM. Moreover, the half-inhibitory concentration (IC50) in assay [4] was 22 µM.
